Assay results taken from patent US20100160369A1, “S1P1 Agonists and Methods of Making And Using” (EXELIXIS, INC., priority 2008, published 2010).

target: S1P1 (Homo sapiens, UniProt P21453); assay: CNG cAMP Assay (Assay 1); type: cell-based; design: host or cells: HEK293 cells expressing the CNG channel; conditions: footnote 1: Relative EC50 was measured, read-out: Assay 1 Relative EC50
Procedure, shortened: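 cAMP-gated CNG membrane-potential read-out (350/590 nm, T90/T0 ratio) in S1P1/CNG HEK293 cells after 90 min with compound plus NECA 500 nM, S1P 10 nM (EC95), Ro 20-1724 25 μM. Ten 3-fold points from 10 μM, 1.8% DMSO; percent activity vs NECA-only control gives EC50.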

Chain of S1P1 (P21453 whole entry): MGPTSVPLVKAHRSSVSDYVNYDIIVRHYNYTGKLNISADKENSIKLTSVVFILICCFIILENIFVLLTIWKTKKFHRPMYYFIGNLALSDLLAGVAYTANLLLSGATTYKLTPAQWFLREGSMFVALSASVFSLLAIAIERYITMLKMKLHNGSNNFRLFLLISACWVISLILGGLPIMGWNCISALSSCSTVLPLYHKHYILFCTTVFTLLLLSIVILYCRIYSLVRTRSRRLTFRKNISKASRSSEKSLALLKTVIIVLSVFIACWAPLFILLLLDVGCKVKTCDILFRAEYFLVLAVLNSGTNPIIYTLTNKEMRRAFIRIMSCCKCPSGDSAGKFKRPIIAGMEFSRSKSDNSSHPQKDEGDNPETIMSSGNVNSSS

| SMILES | EC50 [nM] |
| --- | --- |
| O=C(O)C1CN(Cc2ccc(-c3nc(-c4cn5cc(C(F)(F)F)cc(Cl)c5n4)no3)cc2)C1 [Example 231, 1-[(4-{3-[8-chloro-6-(trifluoromethyl)imidazo[1,2-a]pyridin-2-yl]-1,2,4-oxadiazol-5-yl}phenyl)methyl]azetidine-3-carboxylic acid] | 5000 to 10000 |
| CS(=O)(=O)Nc1c(F)cc(-c2nc(-c3cn4cc(C(F)(F)F)cc(Cl)c4n3)no2)cc1Cl [Example 236, N-(2-chloro-4-{3-[8-chloro-6-(trifluoromethyl)imidazo[1,2-a]pyridin-2-yl]-1,2,4-oxadiazol-5-yl}-6-fluorophenyl)methane sulfonamide] | 5000 to 10000 |
| Cc1cc(C2CC2C(=O)O)c(F)cc1-c1nc(-c2cn3cc(C(F)(F)F)cc(Cl)c3n2)no1 (stereo not drawn) [Example 237, 2-(4-{3-[8-chloro-6-(trifluoromethyl)imidazo[1,2-a]pyridin-2-yl]-1,2,4-oxadiazol-5-yl}-2-fluoro-5-methylphenyl)cyclopropanecarboxylic acid] | 5000 to 10000 |
| Cc1cc(Cl)c2nc(-c3nc(-c4ccc(NS(C)(=O)=O)cc4Cl)no3)cn2c1 [Example 270, N-{3-chloro-4-[5-(8-chloro-6-methylimidazo[1,2-a]pyridin-2-yl)-1,2,4-oxadiazol-3-yl]phenyl}methanesulfonamide] | 5000 to 10000 |

The next lines start with the values.

| EC50 [nM] | SMILES |
| --- | --- |
| 5000 to 10000 | CC(C)(Oc1ccc(-c2noc(-c3cn4cc(C(F)(F)F)cc(Cl)c4n3)n2)c(Cl)c1)C(=O)O [Example 254, 2-[(3-chloro-4-{5-[8-chloro-6-(trifluoromethyl)imidazo[1,2-a]pyridin-2-yl]-1,2,4-oxadiazol-3-yl}phenyl)oxy]-2-methylpropanoic acid] |
| 1000 to 5000 | CC(C)(CO)Oc1c(F)cc(-c2noc(-c3cn4cc(C(F)(F)F)cc(Cl)c4n3)n2)cc1Cl [Example 262, 2-[(2-chloro-4-{5-[8-chloro-6-(trifluoromethyl)imidazo[1,2-a]pyridin-2-yl]-1,2,4-oxadiazol-3-yl}-6-fluorophenyl)oxy]-2-methylpropan-1-ol] |
| 500 to 1000 | CS(=O)(=O)Nc1c(F)cc(-c2noc(-c3cn4cc(C(F)(F)F)cc(Cl)c4n3)n2)cc1F [Example 265, N-(4-{5-[8-chloro-6-(trifluoromethyl)imidazo[1,2-a]pyridin-2-yl]-1,2,4-oxadiazol-3-yl}-2,6-difluorophenyl)methanesulfonamide] |
| 5000 to 10000 | CS(=O)(=O)Nc1ccc(-c2noc(-c3cn4cc(C#N)cc(Cl)c4n3)n2)c(Cl)c1 [Example 269, N-{3-chloro-4-[5-(8-chloro-6-cyanoimidazo[1,2-a]pyridin-2-yl)-1,2,4-oxadiazol-3-yl]phenyl}methanesulfonamide] |

same assay, conditions: read-out: Assay 1 EC50

| SMILES | EC50 [nM] |
| --- | --- |
| Fc1ccccc1-c1nc(-c2cn3cc(C(F)(F)F)cc(Cl)c3n2)no1 [Example 230, 8-chloro-2-[5-(2-fluorophenyl)-1,2,4-oxadiazol-3-yl]-6-(trifluoromethyl)imidazo[1,2-a]pyridine] | 100 to 500 |
| Fc1ccc(-c2nc(-c3cn4cc(C(F)(F)F)cc(Cl)c4n3)no2)c(Cl)c1 [Example 232, 8-chloro-2-[5-(2-chloro-4-fluorophenyl)-1,2,4-oxadiazol-3-yl]-6-(trifluoromethyl)imidazo[1,2-a]pyridine] | 100 to 500 |
| CS(=O)(=O)Nc1cc(Cl)c(-c2nc(-c3cn4cc(C(F)(F)F)cc(Cl)c4n3)no2)cc1F [Example 234, N-(5-chloro-4-{3-[8-chloro-6-(trifluoromethyl)imidazo[1,2-a]pyridin-2-yl]-1,2,4-oxadiazol-5-yl}-2-fluorophenyl)methanesulfonamide] | ≤ 100 |
| NCC(O)COc1cc(Cl)c(-c2nnc(-c3cn4cc(C(F)(F)F)cc(Cl)c4n3)s2)cc1F (stereo not drawn) [Example 249, 1-amino-3-[(5-chloro-4-{5-[8-chloro-6-(trifluoromethyl)imidazo[1,2-a]pyridin-2-yl]-1,3,4-thiadiazol-2-yl}-2-fluorophenyl)oxy]propan-2-ol] | ≤ 100 |
| CC(CN)Oc1ccc(-c2noc(-c3cn4cc(C(F)(F)F)cc(Cl)c4n3)n2)c(Cl)c1 (stereo not drawn) [Example 258, 2-[(3-chloro-4-{5-[8-chloro-6-(trifluoromethyl)imidazo[1,2-a]pyridin-2-yl]-1,2,4-oxadiazol-3-yl}phenyl)oxy]propan-1-amine] | 100 to 500 |
| Oc1cc(Cl)c(-c2noc(-c3cn4cc(C(F)(F)F)cc(Cl)c4n3)n2)cc1F [Example 260, 5-chloro-4-{5-[8-chloro-6-(trifluoromethyl)imidazo[1,2-a]pyridin-2-yl]-1,2,4-oxadiazol-3-yl}-2-fluorophenol] | ≤ 100 |
| CC(CO)Oc1c(F)cc(-c2noc(-c3cn4cc(C(F)(F)F)cc(Cl)c4n3)n2)cc1Cl (stereo not drawn) [Example 261, 2-[(2-chloro-4-{5-[8-chloro-6-(trifluoromethyl)imidazo[1,2-a]pyridin-2-yl]-1,2,4-oxadiazol-3-yl}-6-fluorophenyl)oxy]propan-1-ol] | ≤ 100 |
| Fc1cc(-c2noc(-c3cn4cc(C(F)(F)F)cc(Cl)c4n3)n2)c(Cl)cc1OC1CCNC1 (stereo not drawn) [Example 264, 8-chloro-2-{3-[2-chloro-5-fluoro-4-(pyrrolidin-3-yloxy)phenyl]-1,2,4-oxadiazol-5-yl}-6-(trifluoromethyl)imidazo[1,2-a]pyridine] | ≤ 100 |
| O=c1[nH]c(Cc2ccc(-c3noc(-c4cn5cc(C(F)(F)F)cc(Cl)c5n4)n3)c(Cl)c2)no1 [Example 271, 3-[(3-chloro-4-{5-[8-chloro-6-(trifluoromethyl)imidazo[1,2-a]pyridin-2-yl]-1,2,4-oxadiazol-3-yl}phenyl)methyl]-1,2,4-oxadiazol-5(4H)-one] | 100 to 500 |
| FC(F)(F)c1cc(Cl)c2nc(-c3nc(-c4ccccc4Cl)no3)cn2c1 [Example 273, 8-chloro-2-[3-(2-chlorophenyl)-1,2,4-oxadiazol-5-yl]-6-(trifluoromethyl)imidazo[1,2-a]pyridine] | ≤ 100 |
| O=C(O)[C@@H]1C[C@H](Oc2ccc(-c3noc(-c4cn5cc(C(F)(F)F)cc(Cl)c5n4)n3)c(Cl)c2)CN1 [Example 276, (4S)-4-[(3-chloro-4-{5-[8-chloro-6-(trifluoromethyl)imidazo[1,2-a]pyridin-2-yl]-1,2,4-oxadiazol-3-yl}phenyl)oxy]-L-proline] | ≤ 100 |
| Fc1ccc(-c2noc(-c3cn4cc(C(F)(F)F)cc(Br)c4n3)n2)c(Cl)c1 [Example 281, 8-bromo-2-[3-(2-chloro-4-fluorophenyl)-1,2,4-oxadiazol-5-yl]-6-(trifluoromethyl)imidazo[1,2-a]pyridine] | 100 to 500 |
| FC(F)(F)c1cc(Cl)c2nc(-c3nc(-c4cnccc4C(F)(F)F)no3)cn2c1 [Example 290, 8-chloro-6-(trifluoromethyl)-2-{3-[4-(trifluoromethyl)pyridin-3-yl]-1,2,4-oxadiazol-5-yl}imidazo[1,2-a]pyridine] | 1000 to 5000 |
| N#Cc1cc(C(F)(F)F)cn2cc(-c3nc(-c4ccc(F)cc4Cl)no3)nc12 [Example 291, 2-[3-(2-chloro-4-fluorophenyl)-1,2,4-oxadiazol-5-yl]-6-(trifluoromethyl)imidazo[1,2-a]pyridine-8-carbonitrile] | 100 to 500 |

Second part, the molecule after the results:

| EC50 [nM] | SMILES |
| --- | --- |
| 100 to 500 | CS(=O)(=O)Nc1ccc(-c2nnc(-c3cn4cc(C(F)(F)F)cc(Cl)c4n3)o2)c(Cl)c1 [Example 218, N-(3-chloro-4-{5-[8-chloro-6-(trifluoromethyl)imidazo[1,2-a]pyridin-2-yl]-1,3,4-oxadiazol-2-yl}phenyl)methanesulfonamide] |
| ≤ 100 | CC(CC(=O)O)c1ccc(-c2nnc(-c3cn4cc(C(F)(F)F)cc(Cl)c4n3)o2)c(Cl)c1 (stereo not drawn) [Example 219, 3-(3-chloro-4-{5-[8-chloro-6-(trifluoromethyl)imidazo[1,2-a]pyridin-2-yl]-1,3,4-oxadiazol-2-yl}phenyl)butanoic acid] |
| ≤ 100 | NCC(O)COc1ccc(-c2noc(-c3cn4cc(C(F)(F)F)cc(Cl)c4n3)n2)c(Cl)c1 (stereo not drawn) [Example 223, 1-amino-3-[(3-chloro-4-{5-[8-chloro-6-(trifluoromethyl)imidazo[1,2-a]pyridin-2-yl]-1,2,4-oxadiazol-3-yl}phenyl)oxy]propan-2-ol] |
| 100 to 500 | Fc1cccc(F)c1-c1nc(-c2cn3cc(C(F)(F)F)cc(Cl)c3n2)no1 [Example 228, 8-chloro-2-[5-(2,6-difluorophenyl)-1,2,4-oxadiazol-3-yl]-6-(trifluoromethyl)imidazo[1,2-a]pyridine] |
| ≤ 100 | FC(F)(F)c1cc(Cl)c2nc(-c3noc(-c4ccccc4Cl)n3)cn2c1 [Example 229, 8-chloro-2-[5-(2-chlorophenyl)-1,2,4-oxadiazol-3-yl]-6-(trifluoromethyl)imidazo[1,2-a]pyridine] |
| 100 to 500 | O=C(O)COc1ccc(-c2noc(-c3cn4cc(C(F)(F)F)cc(Cl)c4n3)n2)c(Cl)c1 [Example 253, [(3-chloro-4-{5-[8-chloro-6-(trifluoromethyl)imidazo[1,2-a]pyridin-2-yl]-1,2,4-oxadiazol-3-yl}phenyl)oxy]acetic acid] |
| 500 to 1000 | CS(=O)(=O)Nc1c(F)cc(-c2noc(-c3cn4cc(C(F)(F)F)cc(Cl)c4n3)n2)cc1Cl [Example 268, N-(2-chloro-4-{5-[8-chloro-6-(trifluoromethyl)imidazo[1,2-a]pyridin-2-yl]-1,2,4-oxadiazol-3-yl}-6-fluorophenyl)methane sulfonamide] |
| 500 to 1000 | O=C(O)Cn1ccc2c(-c3noc(-c4cn5cc(C(F)(F)F)cc(Cl)c5n4)n3)cccc21 [Example 293, (4-{5-[8-chloro-6-(trifluoromethyl)imidazo[1,2-a]pyridin-2-yl]-1,2,4-oxadiazol-3-yl}-1H-indol-1-yl)acetic acid] |
